According to patent EP2982368A1, “Small molecule compounds displacing focal adhesion core components” (Universität Konstanz, priority 2014, dated 2016):

Columns and labels:
[1] = biological target: T1, Kinase domain of human FAK (Homo sapiens, UniProt Q05397, P410G); assay: ELISA-based in vitro kinase assay; format: biochemical; conditions: poly-Glu-Tyr substrate, 1 h at 30°C
T1 construct: Kinase domain of human FAK (aa 410-689, hFAK-KD) was expressed; 6xHis (N); made in house; host or cells: Sf9 insect cells (baculovirus, pVL1392)
Procedure: Kinase domain of human FAK (aa 410-689, hFAK-KD) was expressed with an amino-terminal 6xHis-tag and a carboxy-terminal Nef epitope-tag. FAK residue 410 was changed from proline to glycine. Expression of the fusion protein was performed in Sf9 insect cells using the pVL1392 transfer vector and the BacuIoGold Transfection Kit (BD Biosciences, San Diego, USA). Cells were lysed in Sf9 lysis buffer (0.33% Tween20, 1 mM EDTA, 500 mM NaCl, 100 µM PMSF, 1 mM β-Mercaptoethanol in 25 mM TrisHCl, pH 7.5) for 20 min at 4°C. Subsequently, the lysate was cleared by centrifugation and hFAK-KD was purified from the soluble fraction under native conditions by FPLC using a HisTrapFFcrude 1 mL column (GE Healthcare, Munich, Germany)
A microtiter plate was coated with 2 µg/well of poly(Glu:Tyr) (4:1) copolymer (Sigma-Aldrich, Steinheim, Germany) as artificial FAK substrate and blocked with 2% BSA in PBS with 0.01% Tween20. Purified hFAK-KD together with 100 µM ATP were added in kinase buffer (125 mM NaCl, 48 mM MgCl2, 50 mM HEPES, pH 7.5) in presence of various concentrations of test compounds and incubated for 1 h at 30°C. The reaction was stopped by the addition of EDTA and wells were extensively washed with 0.05% Tween20 in PBS. Phosphorylated substrate was detected by monoclonal anti-phosphotyrosine antibody followed by peroxidasecoupled goat anti-mouse antibody. […] The absorbance was measured at 450 nm.

[2] = test system: paxillin; assay: Paxillin displacement in GFP-FAK MEFs (antibody staining, live cell imaging of mKate-paxillin); format: cell-based, mouse; conditions: 10 µM
Procedure: The C-terminal focal adhesion targeting domain of FAK binds to paxillin and talin and is responsible for an efficient recruitment of FAK to focal adhesions. Therefore, it was further investigated whether Mb31 targets FAK directly or possibly in an indirect way by displacement of FAK binding proteins paxillin or talin, respectively. GFP-FAK MEFs were treated with 10 µM of Mb31 and analyzed for paxillin and talin localization via antibody staining. […] To analyze whether FAK and paxillin displacement occur with the same temporal pattern GFP-FAK MEFs were transiently transfected to express mKate-tagged paxillin and living cells were imaged after application of 10 µM of Mb31. Along with FAK, paxillin delocalized rapidly and within 10 min almost no paxillin and FAK remained at focal adhesions. Strikingly, in cells over-expressing paxillin higher Mb31 concentrations were necessary in order to achieve efficient FAK displacement. In non-transfected cells already 4 to 5 µM Mb31 were sufficient, whereas in cells with strong over-expression of paxillin even at 10 µM FAK and paxillin displacement was only partial. […] Still, vinculin localization was not altered in FAK-deficient MEFs treated with Mb31.
MEFs were seeded on fibronectin fragment (4 µg/ml in PBS) in multi-well plates (Greiner Bio-One) and incubated for 4 h to allow spreading. Cells were fixed and permeabilized with MeOH at -20°C after pre-fixation with 4% paraformaldehyde. Cells were blocked with 10% CS in PBS (blocking buffer) and incubated with primary antibodies (α-talin, α-paxillin or α-vinculin) in blocking buffer for 1 h at room temperature. Cells were washed three times with PBS and were incubated with appropriate fluorescently labeled secondary antibodies. Cells were washed again with PBS to remove excess antibodies and were imaged using a Leica AF6000LX fluorescence microscope. To analyze reversibility compound treated cells were washed three times with pre-warmed growth medium. After washout cells were incubated 1 h in presence of 10 µg/ml cycloheximide. […]

[3] = test system: GFP-FAK MEFs; assay: Cell migration assay (single cell tracking, serum-stimulated); format: cell-based, mouse; conditions: for cell velocity: serum-stimulated
Procedure: Image J was used to automatically quantify FAK-containing focal adhesions due to local maxima of fluorescence intensity in the GFP-channel (5 to 70 pixel). The number of cells was automatically counted in the Hoechst channel. To test reproducibility of the system 40 control wells were quantified wherein four positions for each well were imaged. […] GFP-FAK mouse embryonic fibroblasts were seeded on fibronectin and incubated for 1 h with the indicated concentrations of the small compounds, respectively. […] GFP-FAK mouse embryonic fibroblasts were seeded on fibronectin and serum-starved overnight. The indicated concentrations of Mb31 were applied for 30 min. Cells were lysed and analyzed for paxillin and FAK protein level as well as FAK Tyr397 phosphorylation. […] The purified kinase domain of FAK was incubated with increasing amounts of Mb31 for 1 h at 30°C together with poly-Glu-Tyr as a FAK substrate. […] Serum-starved GFP-FAK mouse embryonic fibroblasts were stimulated with normal growth medium and incubated for 5 h with the indicated concentrations of the small molecule compounds, respectively. Cell viability was assessed by MTT assay. […] GFP-FAK MEFs were seeded on fibronectin and serum-starved overnight. Migration was stimulated by replacing the medium with normal growth medium. Migration of single cells was tracked for 8 h in 30 min intervals. Migration was recorded from cells that were cultured without serum (A), with serum (B) or with serum in the presence of 3 µM Mb31 (C). […] (A) GFP-FAK MEFs were seeded and serum-starved as in Figure 10. Cell migration was stimulated with normal growth medium and single cells were tracked for 5 h. […] Mouse embryonic fibroblasts (MEFs) were transfected with talin-mCherry and talin dynamics analyzed in focal adhesions using fluorescence recovery after photobleaching (FRAP). […] (C) Wound closure was microscopically analyzed and evaluated using ImageJ software.
To further determine whether Mb31 interferes with cell motility, GFP-FAK MEFs were serum-stimulated and migration was quantified on a single cell basis (Figures 11 and 12). […]

T1 sequence (Q05397 410-689 P410G): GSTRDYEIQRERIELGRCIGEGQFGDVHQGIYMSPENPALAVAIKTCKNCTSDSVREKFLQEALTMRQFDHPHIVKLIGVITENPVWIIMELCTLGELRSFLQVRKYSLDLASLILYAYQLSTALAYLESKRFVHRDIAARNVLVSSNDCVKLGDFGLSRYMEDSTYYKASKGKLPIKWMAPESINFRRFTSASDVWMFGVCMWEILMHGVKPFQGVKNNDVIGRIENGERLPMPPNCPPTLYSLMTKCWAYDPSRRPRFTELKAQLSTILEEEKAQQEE

O=[N+]([O-])C=Cc1cc(Br)cs1 [FootLocker 1, 4-bromo-2-(2-nitrovinyl)thiophene]
in vitro activity of purified FAK kinase domain (FAK substrate phosphorylation) [1]: not altered | FAK and paxillin displacement in cells with strong over-expression of paxillin [2]: only partial | paxillin localization ([2]; 30 min, antibody staining): displaced from focal adhesions | time until almost no paxillin and FAK remained at focal adhesions ([2]; living cells expressing mKate-tagged paxillin): ≤ 10 min | cell velocity after treatment of migrating cells ([3]; added after 5 h tracking, 3 µM or more, further 5 h): 0.11 µm/min | cell velocity ([3]; 2 µM): 0.11 µm/min | cell velocity ([3]; 3 µM): 0.07 µm/min
